These results are taken from patent US12570655B2, “Cysteine covalent modifiers of AKT1 and uses thereof” (Terremoto Biosciences, Inc., priority 2023, dated 2026).

SMILES strings stand for the structures. pIC50: −log10 of the molar value. Read-outs that look alike come from different tables or passages of the source. Where only a bound is given, the exact number is not on record here.

Assay type in all cases: cell-based
In one assay the target is T1, AKT1 E17K (Homo sapiens, UniProt P31749, E17K).
T1 construct: expressed in transfected cells; host or cells: HEK293
T1 sequence (P31749 whole entry E17K): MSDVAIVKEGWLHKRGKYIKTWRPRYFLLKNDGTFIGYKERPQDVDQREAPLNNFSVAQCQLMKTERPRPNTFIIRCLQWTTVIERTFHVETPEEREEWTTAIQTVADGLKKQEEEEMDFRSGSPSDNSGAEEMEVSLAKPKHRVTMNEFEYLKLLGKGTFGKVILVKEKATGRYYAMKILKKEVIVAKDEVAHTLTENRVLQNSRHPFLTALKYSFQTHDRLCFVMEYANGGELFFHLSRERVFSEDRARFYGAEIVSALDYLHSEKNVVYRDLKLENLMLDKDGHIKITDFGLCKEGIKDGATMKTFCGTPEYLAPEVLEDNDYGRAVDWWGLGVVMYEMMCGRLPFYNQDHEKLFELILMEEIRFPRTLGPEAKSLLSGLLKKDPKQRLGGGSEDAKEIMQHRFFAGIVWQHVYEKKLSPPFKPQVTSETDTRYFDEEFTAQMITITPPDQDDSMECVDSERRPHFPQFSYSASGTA
The assay can be described thus: Live cell AKT1 E17K target engagement by NanoBRET competitive probe displacement. To be noted: HEK293 cells transfected with kinase-NanoLuciferase fusion, 2 h at 37° C. On the procedure: (§1) Determining Live Cell AKT1 E17K, AKT1 WT, and AKT2 Target Engagement by NanoBRET Competitive Probe Displacement.
(§2) Live cell target engagement assays were performed as described (Vasta, J. D. et al. Cell Chem Biol 2018, 25(11), 206-214). Briefly, HEK293 cells were transfected with plasmids encoding kinase-NanoLuciferase fusion proteins overnight. Cells were then treated with serial dilutions of compound and an ˜EC50 concentration of fluorescently-tagged ATP-competitive tracer (Promega). After incubation for 2 h at 37° C., luciferase substrate and extracellular luciferase inhibitor were added to all wells, and luminescent intensity at 460 nm and 600 nm were measured on a multimode plate-reader. The ratio of E600/E460 was calculated to give the tracer engagement signal (BRET). IC50 values were calculated by fitting BRET values to a log(inhibitor) vs. response Hill equation.
In general terms: In BRET a luciferase serves as donor, and the signal depends on an acceptor being close.

Another assay deals with T2, AKT1 WT (Homo sapiens, UniProt P31749).
T2 construct: expressed in transfected cells; host or cells: HEK293
T2 sequence (P31749 whole entry): as the sequence (P31749 whole entry E17K) above, with K17E counted along it
The assay can be described thus: Live cell AKT1 WT target engagement by NanoBRET competitive probe displacement. To be noted: HEK293 cells transfected with kinase-NanoLuciferase fusion, 2 h at 37° C. On the procedure: as §1, §2

Assay [1] deals with LAPC4 prostate cancer cells. The assay can be described thus: Antiproliferative effects in LAPC4 cells (CellTiter Glo). Conditions: LAPC4 cells (AKT1 E17K allele), read-out: LAPC4 proliferation IC50. On the procedure:
Antiproliferative Effects in LAPC4 Cells.
LAPC4 prostate cancer cells (Klein, K. A. et al. Nat Med 1997, 3, 402-408), which express the AKT1 E17K allele, were grown in IMDM media (Hyclone) supplemented with 12% FBS+1% P/S. To assess compound effects on growth, 1,000 cells/well were seeded in 384 well assay plates, incubated with compound dilutions dissolved in DMSO. After 72 h, intracellular ATP content was assessed with CellTiter Glo reagent (Promega) according to the manufacturer's instructions. IC50 values were calculated by fitting luminescence values to a log(inhibitor) vs. response Hill equation.
(Cellular ATP, detected with luciferase, serves as a proxy for viable cell number.)

On to `C=CC(=O)N1CCC(N[C@H]2CCc3cc(-n4c(-c5cccnc5N)nc5ccc(-n6cccn6)nc54)ccc32)C[C@H]1C(F)F` (single isomer, unassigned) [Example 214, 1-((2S,4*)-4-(((S)-5-(2-(2-aminopyridin-3-yl)-5-(1H-pyrazol-1-yl)-3H-imidazo[4,5-b]pyridin-3-yl)-2,3-dihydro-1H-inden-1-yl)amino)-2-(difluoromethyl)piperidin-1-yl)prop-2-en-1-one], for which the pIC50 is 8.33 at AKT1 E17K; 7.44 at AKT1 WT; 7.57 in assay [1] (Homo sapiens, LAPC4, 72 h).

`C=CC(=O)N1C[C@H]2CCC[C@@H](C1)C2N[C@H]1CCc2cc(-n3c(-c4cccnc4N)nc4ccc(-n5cccn5)nc43)ccc21` (single isomer, unassigned) [Example 188, 1-((1R,5S,9*)-9-(((S)-5-(2-(2-aminopyridin-3-yl)-5-(1H-pyrazol-1-yl)-3H-imidazo[4,5-b]pyridin-3-yl)-2,3-dihydro-1H-inden-1-yl)amino)-3-azabicyclo[3.3.1]nonan-3-yl)prop-2-en-1-one]: the pIC50 at AKT1 E17K is 8.25; at AKT1 WT it was 7.46; in assay [1] (72 h), 7.25.

In the case of `C=CC(=O)N1C[C@@H]2[C@H](C1)[C@H]2NC1CCc2cc(-n3c(-c4cccnc4N)nc4ccc(-n5cccn5)nc43)ccc21` (single isomer, unassigned) [Example 346, 1-((1R,5S,6s)-6-(((*)-5-(2-(2-aminopyridin-3-yl)-5-(1H-pyrazol-1-yl)-3H-imidazo[4,5-b]pyridin-3-yl)-2,3-dihydro-1H-inden-1-yl)amino)-3-azabicyclo[3.1.0]hexan-3-yl)prop-2-en-1-one], the pIC50 on AKT1 E17K was 6.35; on AKT1 WT, 5.56.

For `C=CC(=O)N1CCC(N[C@@H]2c3ccc(-n4c(-c5cccnc5N)nc5ccc(-n6cccn6)nc54)cc3CC2F)CC1C(F)F` (single isomer, unassigned) [Example 303, 1-((2*,4*)-4-(((1R,2*)-5-(2-(2-aminopyridin-3-yl)-5-(1H-pyrazol-1-yl)-3H-imidazo[4,5-b]pyridin-3-yl)-2-fluoro-2,3-dihydro-1H-inden-1-yl)amino)-2-(difluoromethyl)piperidin-1-yl)prop-2-en-1-one], the pIC50 was 7.96 at AKT1 E17K, 7.66 at AKT1 WT and 7.82 in assay [1] (72 h).

As for `C=CC(=O)N1CCC(N[C@H]2CCc3cc(-n4c(-c5cccnc5N)nc5cc(-c6ccncc6)cnc54)ccc32)CC1` [Example 191, (S)-1-(4-((5-(2-(2-aminopyridin-3-yl)-6-(pyridin-4-yl)-3H-imidazo[4,5-b]pyridin-3-yl)-2,3-dihydro-1H-inden-1-yl)amino)piperidin-1-yl)prop-2-en-1-one], the pIC50 is 6.66 at AKT1 E17K; 5.90 at AKT1 WT; 5.47 in assay [1] (Homo sapiens, LAPC4, 72 h).

For the molecule `C=CC(=O)NC1CCN(C2CCc3cc(-n4c(-c5cccnc5N)nc5ccc(-n6cccn6)nc54)ccc32)CC1` (single isomer, unassigned) [Example 193, N-{1-[(1*)-5-[2-(2-aminopyridin-3-yl)-5-(pyrazol-1-yl)imidazo[4,5-b]pyridin-3-yl]-2,3-dihydro-1H-inden-1-yl]piperidin-4-yl}prop-2-enamide], the pIC50 on AKT1 E17K is 7.99; at AKT1 WT, 7.15; in assay [1] (Homo sapiens, LAPC4, 72 h), 7.23.

`C=CC(=O)N1CCC(N[C@@H]2c3ccc(-n4c(-c5ccccc5F)nc5ccc(-n6cccn6)nc54)cc3CC2F)CC1` (single isomer, unassigned) [Example 299, 1-(4-(((1R,2*)-2-fluoro-5-(2-(2-fluorophenyl)-5-(1H-pyrazol-1-yl)-3H-imidazo[4,5-b]pyridin-3-yl)-2,3-dihydro-1H-inden-1-yl)amino)piperidin-1-yl)prop-2-en-1-one]: the pIC50 on AKT1 E17K is 8.03; on AKT1 WT it was 5.93; in assay [1] (Homo sapiens, LAPC4, 72 h), 6.22.

As to `C=CC(=O)N1CCC(N[C@H]2CCc3cc(-n4c(-c5cccnc5N)nc5cc(-c6cccnc6)cnc54)ccc32)CC1` [Example 190, (S)-1-(4-((5-(2-(2-aminopyridin-3-yl)-6-(pyridin-3-yl)-3H-imidazo[4,5-b]pyridin-3-yl)-2,3-dihydro-1H-inden-1-yl)amino)piperidin-1-yl)prop-2-en-1-one], the pIC50 on AKT1 E17K is 7.00; on AKT1 WT it was 6.13; in assay [1] (Homo sapiens, LAPC4, 72 h), 5.88.

For the molecule `C=CC(=O)N1CCN(CC2CCc3cc(-n4c(-c5cccnc5N)nc5ccc(-n6cccn6)nc54)ccc32)C[C@H]1C` (single isomer, unassigned) [Example 292, 1-((R)-4-(((*)-5-(2-(2-aminopyridin-3-yl)-5-(1H-pyrazol-1-yl)-3H-imidazo[4,5-b]pyridin-3-yl)-2,3-dihydro-1H-inden-1-yl)methyl)-2-methylpiperazin-1-yl)prop-2-en-1-one], the pIC50 on AKT1 E17K is 8.16; at AKT1 WT it was 7.35; in assay [1] (Homo sapiens, LAPC4, 72 h), 6.87.

Consider `C=CC(=O)N1C[C@@H]2[C@H](C1)[C@H]2NC1CCc2cc(-n3c(-c4cccnc4N)nc4ccc(-n5cccn5)nc43)ccc21` (single isomer, unassigned) [Example 347, 1-((1R,5S,6s)-6-(((*)-5-(2-(2-aminopyridin-3-yl)-5-(1H-pyrazol-1-yl)-3H-imidazo[4,5-b]pyridin-3-yl)-2,3-dihydro-1H-inden-1-yl)amino)-3-azabicyclo[3.1.0]hexan-3-yl)prop-2-en-1-one], for which the pIC50 at AKT1 E17K is 6.63; at AKT1 WT, 5.66.

In the case of `C=CC(=O)N1CCC(N[C@H]2CCc3cc(-n4c(-c5cccnc5N)nc5ccc(C(C)C)nc54)ccc32)CC1` [Example 242, 1-(4-{[(1S)-5-[2-(2-aminopyridin-3-yl)-5-isopropylimidazo[4,5-b]pyridin-3-yl]-2,3-dihydro-1H-inden-1-yl]amino}piperidin-1-yl)prop-2-en-1-one], the pIC50 was 7.52 on AKT1 E17K; 5.84 on AKT1 WT; 6.12 in assay [1] (Homo sapiens, LAPC4, 72 h).

On to `C=CC(=O)N1CCC(NC2CCc3cc(-n4c(-c5cccnc5N)nc5ccc(C(F)F)nc54)ccc32)CC1` (stereo in doubt) [Example 196, 1-(4-{[(1R)-5-[2-(2-aminopyridin-3-yl)-5-(difluoromethyl)imidazo[4,5-b]pyridin-3-yl]-?3-dihydro-1H-inden-1-yl]amino}piperidin-1-yl)prop-2-en-1-one], for which the pIC50 on AKT1 E17K was 7.02; at AKT1 WT, 5.70; in assay [1] (Homo sapiens, LAPC4, 72 h) it was 5.92.

As to `C=CC(=O)N1CCc2cccc(C(=O)N[C@H]3CCc4cc(-n5c(-c6cccnc6N)nc6ccc(-n7cccn7)nc65)ccc43)c2C1` [Example 235, (S)-2-acryloyl-N-(5-(2-(2-aminopyridin-3-yl)-5-(1H-pyrazol-1-yl)-3H-imidazo[4,5-b]pyridin-3-yl)-2,3-dihydro-1H-inden-1-yl)-1,2,3,4-tetrahydroisoquinoline-8-carboxamide], the pIC50 was 7.90 on AKT1 E17K; 7.29 on AKT1 WT; 7.18 in assay [1] (Homo sapiens, LAPC4, 72 h).

In the case of `C=CC(=O)N1CCC(N[C@H]2CCc3cc(-n4c(-c5ccccc5C(F)F)nc5ccc(-n6cccn6)nc54)ccc32)CC1` [Example 285, (S)-1-(4-((5-(2-(2-(difluoromethyl)phenyl)-5-(1H-pyrazol-1-yl)-3H-imidazo[4,5-b]pyridin-3-yl)-2,3-dihydro-1H-inden-1-yl)amino)piperidin-1-yl)prop-2-en-1-one], the pIC50 was 6.22 on AKT1 E17K and 5.81 in assay [1] (Homo sapiens, LAPC4, 72 h).

With `C=CC(=O)N1CCC(N[C@H]2CCc3cc(-n4c(C5CC5)nc5ccc(-n6cccn6)nc54)ccc32)CC1` [Example 248, (S)-1-(4-((5-(2-cyclopropyl-5-(1H-pyrazol-1-yl)-3H-imidazo[4,5-b]-430-pyridine-3-yl)-2,3-dihydro-1H-inden-1-yl)amino)piperidin-1-yl)prop-2-en-1-one], the pIC50 on AKT1 E17K is < 6.00; in assay [1] (Homo sapiens, LAPC4, 72 h), < 5.00.

As for `C=CC(=O)N1CCC(N[C@H]2CCc3cc(-n4c(-c5cccnc5N)nc5ccc(-n6cccn6)nc54)ccc32)CC1CC#N` (single isomer, unassigned) [Example 338, 2-((2*,4*)-1-acryloyl-4-(((S)-5-(2-(2-aminopyridin-3-yl)-5-(1H-pyrazol-1-yl)-3H-imidazo[4,5-b]pyridin-3-yl)-2,3-dihydro-1H-inden-1-yl)amino)piperidin-2-yl)acetonitrile], the pIC50 at AKT1 E17K is 7.91; on AKT1 WT, 6.97.

Turning to `C=CC(=O)N1CCC(NC2c3ccc(-n4c(-c5cccnc5N)nc5ccc(-n6ccc(C7CC7)n6)nc54)cc3CC2F)CC1C(F)F` (single isomer, unassigned) [Example 333, 1-((2*,4*)-4-(((1*,2*)-5-(2-(2-aminopyridin-3-yl)-5-(3-cyclopropyl-H-pyrazol-1-yl)-3H-imidazo[4,5-b]pyridin-3-yl)-2-fluoro-2,3-dihydro-1H-inden-1-yl)amino)-2-(difluoromethyl)piperidin-1-yl)prop-2-en-1-one], the pIC50 on AKT1 E17K was 8.36; on AKT1 WT it was 7.55.
